What was measured:
[1] = Differential scanning calorimetry of unilamellar DPPC vesicles with added sugar; format: physicochemical; settings: for cooperativity of the transition (peak width at half peak height, PWHH) / enthalpy of main phase transition / main phase transition temperature of DPPC liposomes: increasing mole ratio of sugar to lipid; for main phase transition temperature of DPPC liposomes: DSC 30-60 °C at 2 °C/min, DPPC alone ~42 °C
Procedure: Methods: Unilamellar vesicles were prepared by extrusion. Sucrose or sucralose was added to the vesicles to achieve the desired mole ratio after vesicle formation. Differential scanning calorimetry was used to examine the main phase behavior of the liposome bilayer. Thermograms were obtained in the heating and cooling directions between 30° C. and 60° C. at a rate of 2° C./min.

red blood cells [2] = assay: Percent hemolysis of red blood cells on addition of sucralose (no freezing); format: cell-based, sheep; settings: measured against PBS buffer and triton X
Procedure: (§1) Experiments that measure the percent hemolysis of red blood cells before and after treatment were carried out using sheep blood.
(§2) We measured absorption at three wavelengths (450 nm, 500 nm and 525 nm, shown in FIGS. 10, 11 and 12, respectively). […] That is why the error bars are smallest for those.

red blood cells [3] = assay: Percent hemolysis of red blood cells frozen with sucralose and thawed; format: cell-based, sheep; settings: for protective effect compared with 20% glycerol solution: equivalent volume of 20% v/v glycerol, blood frozen for 48 hours; for protection during freezing (hemolysis): measured against triton X and PBS
Procedure: as §1
This is data from blood frozen for 48 hours.
as §2

mouse myoblasts = assay: Cytotoxicity of sucralose on nucleated cells; format: cell-based
From the text: Protection against hemolysis of red blood cells in the presence of increasing amounts of sucralose was examined at 3.5×(˜0.7 billion cells/ml) and 7×(˜1.4 billion cells/ml) the original red blood cell count, and are shown in FIGS. 15A and 15B, respectively. […] In addition, studies on the cytotoxicity of sucralose on nucleated cells, mouse myoblasts, indicate that sucralose concentrations in excess of about 2.5% w/v may have toxic effects.

| SMILES | shoulders in thermograms (indicative of phase separation) ([1]; cooling cycle) | shoulders in thermograms (indicative of phase separation) ([1]; heating cycle) | cooperativity of the transition (peak width at half peak height, PWHH) [1] | enthalpy of main phase transition [1] | main phase transition temperature of DPPC liposomes [1] | induction of hemolysis on addition (red blood cells [2]) | protective effect compared with 20% glycerol solution (red blood cells [3]) | protective effect compared with 20% glycerol solution (red blood cells [3]; listed as sugar) | protection during freezing (hemolysis) (red blood cells [3]; frozen and thawed) | protection during freezing (hemolysis) (red blood cells [3]; frozen and thawed, listed as sugar) | sucralose concentration resulting in decreased efficacy in protecting red blood cells from hemolysis (red blood cells [3]; frozen and thawed, ~0.7 and ~1.4 billion cells/ml) | amount of sucralose required for cryopreservation of red blood cells (red blood cells [3]; red blood cell count about 0.2 to 1.4 billion cells/ml) | sucralose concentration that may have toxic effects (mouse myoblasts) |
| --- | --- | --- | --- | --- | --- | --- | --- | --- | --- | --- | --- | --- | --- |
| OC[C@H]1O[C@H](O[C@]2(CCl)O[C@H](CCl)[C@@H](O)[C@@H]2O)[C@H](O)[C@@H](O)[C@H]1Cl [sucralose, 1,6-Dichloro-1,6-dideoxy-β-D-fructofuranosyl-4-chloro-4-deoxy-α-D-galactopyranoside] | not seen | a shoulder is seen in some thermograms | drastic decrease in cooperativity | remained essentially unchanged | decreased significantly | does not induce hemolysis | better than using an equivalent volume of a 20% glycerol solution | performs better than a 20% v/v solution of glycerol | substantially reduces hemolysis | protective effect | above 2.5 % w/v | increases with an increase of red blood cell concentration | above 2.5 % w/v |
| OC[C@H]1O[C@@](CO)(O[C@H]2O[C@H](CO)[C@@H](O)[C@H](O)[C@H]2O)[C@@H](O)[C@@H]1O [sucrose] | shoulders are again observed | shoulders appear | decrease in cooperativity | remains relatively stable | little change |  |  |  |  |  |  |  |  |
